Source: ChEMBL document CHEMBL1201862, “PubChem BioAssay data set” (2004)
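Tested at 5 concentrations; 48 h exposure; 96-well plates; endpoints linearly interpolated, else capped at highest concentration. At the GI50, growth is halved.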 Active and inactive are the calls of the source. Rule as the data show it: active = GI50 up to about 1.1 µM and inactive = higher.

Columns and labels:
Assay in all cases: DTP human tumour cell line panel, 48 h
A498 = test system: A498
MDA-MB-231 = test system: MDA-MB-231
BT-549 = test system: BT-549
SK-MEL-28 = test system: SK-MEL-28
SK-MEL-2 = test system: SK-MEL-2
MCF7 = test system: MCF7
Hs-578T = test system: Hs-578T
MDA-N = test system: MDA-N
HL-60 = test system: HL-60
NCI-H23 = test system: NCI-H23
CAKI-1 = test system: CAKI-1
OVCAR-4 = test system: OVCAR-4
OVCAR-8 = test system: OVCAR-8
HOP-92 = test system: HOP-92
SF-268 = test system: SF-268
HT-29 = test system: HT-29
TK-10 = test system: TK-10
HCT-116 = test system: HCT-116
NCI-H226 = test system: NCI-H226
RXF 393 = test system: RXF 393
SK-MEL-5 = test system: SK-MEL-5
NCI-H460 = test system: NCI-H460
CCRF-CEM = test system: CCRF-CEM
EKVX = test system: EKVX
ACHN = test system: ACHN
HOP-62 = test system: HOP-62
T47D = test system: T47D
SW-620 = test system: SW-620
HCT-15 = test system: HCT-15
DU-145 = test system: DU-145
UACC-257 = test system: UACC-257
IGROV-1 = test system: IGROV-1
NCI/ADR-RES = test system: NCI/ADR-RES
LOX IMVI = test system: LOX IMVI
MDA-MB-435 = test system: MDA-MB-435
SNB-75 = test system: SNB-75
786-0 = test system: 786-0
RPMI-8226 = test system: RPMI-8226
KM12 = test system: KM12
OVCAR-3 = test system: OVCAR-3
SK-OV-3 = test system: SK-OV-3
UACC-62 = test system: UACC-62
SNB-19 = test system: SNB-19
SF-295 = test system: SF-295
K562 = test system: K562
HCC 2998 = test system: HCC 2998
A549 = test system: A549
MOLT-4 = test system: MOLT-4
NCI-H522 = test system: NCI-H522
UO-31 = test system: UO-31
OVCAR-5 = test system: OVCAR-5
U-251 = test system: U-251
M14 = test system: M14
PC-3 = test system: PC-3
COLO 205 = test system: COLO 205
SR = test system: SR
SN12C = test system: SN12C
SF-539 = test system: SF-539
Malme-3M = test system: Malme-3M

CCN(CC)CCN1C=CC(C)C(C(=O)O)C1C(N)=O (centres undefined)
GI50 (A498): > 100 µM (inactive)
GI50 (MDA-MB-231): > 100 µM (inactive)
GI50 (BT-549): > 100 µM (inactive)
GI50 (SK-MEL-28): > 100 µM (inactive)
GI50 (SK-MEL-2): > 100 µM (inactive)
GI50 (MCF7): > 100 µM (inactive)
GI50 (Hs-578T): > 100 µM (inactive)
GI50 (MDA-N): > 100 µM (inactive)
GI50 (HL-60): > 100 µM (inactive)
GI50 (NCI-H23): > 100 µM (inactive)
GI50 (CAKI-1): > 100 µM (inactive)
GI50 (OVCAR-4): > 100 µM (inactive)
GI50 (OVCAR-8): > 100 µM (inactive)
GI50 (HOP-92): > 100 µM (inactive)
GI50 (SF-268): > 100 µM (inactive)
GI50 (HT-29): > 100 µM (inactive)
GI50 (TK-10): > 100 µM (inactive)
GI50 (HCT-116): > 100 µM (inactive)
GI50 (NCI-H226): > 100 µM (inactive)
GI50 (RXF 393): > 100 µM (inactive)
GI50 (SK-MEL-5): > 100 µM (inactive)
GI50 (NCI-H460): > 100 µM (inactive)
GI50 (CCRF-CEM): > 100 µM (inactive)
GI50 (EKVX): > 100 µM (inactive)
GI50 (ACHN): > 100 µM (inactive)
GI50 (HOP-62): > 100 µM (inactive)
GI50 (T47D): > 100 µM (inactive)
GI50 (SW-620): > 100 µM (inactive)
GI50 (HCT-15): > 100 µM
GI50 (DU-145): > 100 µM (inactive)
GI50 (UACC-257): > 100 µM (inactive)
GI50 (IGROV-1): > 100 µM (inactive)
GI50 (NCI/ADR-RES): > 100 µM (inactive)
GI50 (LOX IMVI): > 100 µM (inactive)
GI50 (MDA-MB-435): > 100 µM (inactive)
GI50 (SNB-75): > 100 µM (inactive)
GI50 (786-0): > 100 µM (inactive)
GI50 (RPMI-8226): > 100 µM (inactive)
GI50 (KM12): > 100 µM (inactive)
GI50 (OVCAR-3): > 100 µM (inactive)
GI50 (SK-OV-3): > 100 µM (inactive)
GI50 (UACC-62): > 100 µM (inactive)
GI50 (SNB-19): > 100 µM (inactive)
GI50 (SF-295): > 100 µM (inactive)
GI50 (K562): > 100 µM (inactive)
GI50 (HCC 2998): > 100 µM (inactive)
GI50 (A549): > 100 µM (inactive)
GI50 (MOLT-4): > 100 µM (inactive)
GI50 (NCI-H522): > 100 µM (inactive)
GI50 (UO-31): > 100 µM (inactive)
GI50 (OVCAR-5): > 100 µM (inactive)
GI50 (U-251): > 100 µM (inactive)
GI50 (M14): > 100 µM (inactive)
GI50 (PC-3): > 100 µM (inactive)
GI50 (COLO 205): > 100 µM (inactive)
GI50 (SR): > 100 µM (inactive)
GI50 (SN12C): > 100 µM (inactive)

CCOC(=O)c1ccc(Nc2nc3ccc(C(F)(F)F)cc3nc2C(=O)OCC)cc1
GI50 (A498): > 100 µM (inactive)
GI50 (MDA-MB-231): > 100 µM (inactive)
GI50 (BT-549): > 100 µM (inactive)
GI50 (SK-MEL-28): > 100 µM (inactive)
GI50 (MCF7): > 100 µM (inactive)
GI50 (SF-539): > 100 µM (inactive)
GI50 (Hs-578T): 32.9 µM (inactive)
GI50 (MDA-N): > 100 µM (inactive)
GI50 (HL-60): > 100 µM (inactive)
GI50 (NCI-H23): > 100 µM (inactive)
GI50 (CAKI-1): 81.3 µM (inactive)
GI50 (OVCAR-8): > 100 µM (inactive)
GI50 (HOP-92): > 100 µM (inactive)
GI50 (SF-268): > 100 µM (inactive)
GI50 (HT-29): > 100 µM (inactive)
GI50 (TK-10): > 100 µM (inactive)
GI50 (HCT-116): > 100 µM (inactive)
GI50 (NCI-H226): > 100 µM (inactive)
GI50 (RXF 393): > 100 µM (inactive)
GI50 (SK-MEL-5): > 100 µM (inactive)
GI50 (NCI-H460): > 100 µM (inactive)
GI50 (CCRF-CEM): > 100 µM (inactive)
GI50 (EKVX): > 100 µM (inactive)
GI50 (ACHN): > 100 µM (inactive)
GI50 (HOP-62): 49.2 µM (inactive)
GI50 (T47D): > 100 µM (inactive)
GI50 (SW-620): > 100 µM (inactive)
GI50 (HCT-15): > 100 µM
GI50 (DU-145): > 100 µM (inactive)
GI50 (UACC-257): > 100 µM (inactive)
GI50 (IGROV-1): > 100 µM (inactive)
GI50 (NCI/ADR-RES): > 100 µM (inactive)
GI50 (LOX IMVI): > 100 µM (inactive)
GI50 (MDA-MB-435): > 100 µM (inactive)
GI50 (SNB-75): 95.3 µM (inactive)
GI50 (786-0): > 100 µM (inactive)
GI50 (RPMI-8226): > 100 µM (inactive)
GI50 (KM12): > 100 µM (inactive)
GI50 (OVCAR-3): > 100 µM (inactive)
GI50 (SK-OV-3): > 100 µM (inactive)
GI50 (UACC-62): > 100 µM (inactive)
GI50 (SNB-19): > 100 µM (inactive)
GI50 (SF-295): > 100 µM (inactive)
GI50 (K562): > 100 µM (inactive)
GI50 (HCC 2998): > 100 µM (inactive)
GI50 (A549): > 100 µM (inactive)
GI50 (Malme-3M): > 100 µM (inactive)
GI50 (MOLT-4): > 100 µM (inactive)
GI50 (NCI-H522): > 100 µM (inactive)
GI50 (UO-31): > 100 µM (inactive)
GI50 (OVCAR-5): > 100 µM (inactive)
GI50 (U-251): > 100 µM (inactive)
GI50 (M14): > 100 µM (inactive)
GI50 (PC-3): > 100 µM (inactive)
GI50 (COLO 205): > 100 µM (inactive)
GI50 (SR): > 100 µM (inactive)
GI50 (SN12C): > 100 µM (inactive)
